# From patent US10689354B2, “Aminoazole derivative” (Teijin Pharma Limited, priority 2015, dated 2020)
# Molecular target: T1, androgen receptor (AR-LBD) (Rattus norvegicus, UniProt P15207)
# T1 construct: 5 μL of 2×AR-LBD/Fluoromone AL Red Complex contained in the kit; purchased Invitrogen
# T1 sequence (P15207 651-882 limits assumed): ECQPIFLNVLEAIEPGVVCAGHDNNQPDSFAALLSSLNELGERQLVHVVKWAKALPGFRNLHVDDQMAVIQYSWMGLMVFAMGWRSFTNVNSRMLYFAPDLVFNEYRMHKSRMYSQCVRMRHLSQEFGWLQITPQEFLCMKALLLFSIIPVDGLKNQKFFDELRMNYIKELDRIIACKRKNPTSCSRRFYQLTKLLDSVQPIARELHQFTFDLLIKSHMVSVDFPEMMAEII
# Test: Evaluation of androgen receptor affinity (PolarScreen Androgen Receptor Competitor Assay Kit, Red; fluorescence polarization)
# Details: 22° C. for 5 hours, relative to binding rate of 1 μM DHT, read-out: AR affinity (pEC50) (converted)
# How it was run: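 pEC50 values reflect tracer displacement from AR-LBD (Fluoromone AL Red complex) measured by fluorescence polarization after 5 h at 22° C, normalized to 1 μM DHT and fitted with a 4-parameter model.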
row,SMILES,EC50 [µM]
1,"Cc1sc(N(CCC(C)(C)C)Cc2ccccc2)nc1C(=O)NS(C)(=O)=O [Compound 686, 2-[benzyl(3,3-dimethylbutyl)amino]-5-methyl-N-methylsulfonyl-thiazole-4-carboxamide]",> 2
2,"Cc1cc(CN(c2ccc(C#N)cc2)c2nc(C(=O)NS(C)(=O)=O)c(C)s2)no1 [Compound 445, 2-[4-cyano-N-[(5-methylisoxazol-3-yl)methyl]anilino]-5-methyl-N-methylsulfonyl-thiazole-4-carboxamide]",0.631
3,"Cc1sc(N(Cc2nc3ccccc3[nH]2)c2ccc(C#N)cc2)nc1C(=O)NS(C)(=O)=O [Compound 460, 2-[N-(1H-benzimidazol-2-ylmethyl)-4-cyano-anilino]-5-methyl-N-methylsulfonyl-thiazole-4-carboxamide]",1.26
4,"Cc1sc(N(Cc2ncccc2OCc2ccccc2)c2ccc(C#N)cc2)nc1C(=O)NS(C)(=O)=O [Compound 490, 2-[N-[(3-benzyloxy-2-pyridyl)methyl]-4-cyano-anilino]-5-methyl-N-methylsulfonyl-thiazole-4-carboxamide]",> 2
5,"Cc1sc(N(CC(=O)N(C)c2ccccc2)c2ccc(C#N)cc2)nc1C(=O)NS(C)(=O)=O [Compound 426, 2-(4-cyano-N-[2-(N-methylanilino)-2-oxo-ethyl]anilino)-5-methyl-N-methylsulfonyl-thiazole-4-carboxamide]",> 2
6,"Cc1sc(N(Cc2ccccc2)c2cccc(-n3cncn3)c2)nc1C(=O)NS(C)(=O)=O [Compound 71, 2-[N-benzyl-3-(1,2,4-triazol-1-yl)anilino]-5-methyl-N-methylsulfonyl-thiazole-4-carboxamide]",> 2
7,"Cc1sc(N(Cc2ccccc2)CC(O)c2ccccc2)nc1C(=O)NS(C)(=O)=O (centres unmarked) [Compound 462, 2-[benzyl-(2-hydroxy-2-phenyl-ethyl)amino]-5-methyl-N-methylsulfonyl-thiazole-4-carboxamide]",1.26
8,"Cc1sc(N(CC(=O)N(C)C2CCCCC2)c2ccc(C#N)cc2)nc1C(=O)NS(C)(=O)=O [Compound 424, 2-(4-cyano-N-[2-[cyclohexyl(methyl)amino]-2-oxo-ethyl]anilino)-5-methyl-N-methylsulfonyl-thiazole-4-carboxamide]",> 2
9,"Cc1sc(N(Cc2cscn2)c2ccc(C#N)cc2)nc1C(=O)NS(C)(=O)=O [Compound 380, 2-[4-cyano-N-(thiazol-4-ylmethyl)anilino]-5-methyl-N-methylsulfonyl-thiazole-4-carboxamide]",0.794
10,"Cc1sc(N(Cc2ccccc2)c2ccc(C#N)cc2)nc1C(=O)NS(=O)(=O)CCN1CCCCC1 [Compound 430, 2-(N-benzyl-4-cyano-anilino)-5-methyl-N-[2-(1-piperidyl)ethylsulfonyl]thiazole-4-carboxamide]",> 2
11,"Cc1sc(N(CCc2ccc(O)cc2)c2ccc(C#N)cc2)nc1C(=O)NS(C)(=O)=O [Compound 62, 2-[4-cyano-N-[2-(4-hydroxyphenyl)ethyl]anilino]-5-methyl-N-methylsulfonyl-thiazole-4-carboxamide]",1.58
12,"Cc1sc(N(Cc2ccc(OCCO)cc2)c2ccc(C#N)cc2)nc1C(=O)NS(C)(=O)=O [Compound 569, 2-[4-cyano-N-[[4-(2-hydroxyethoxy)phenyl]methyl]anilino]-5-methyl-N-methylsulfonyl-thiazole-4-carboxamide]",0.631
13,"Cc1sc(N(Cc2ccccc2)c2cccc3cccnc23)nc1C(=O)NS(C)(=O)=O [Compound 53, 2-[benzyl(8-quinolyl)amino]-5-methyl-N-methylsulfonyl-thiazole-4-carboxamide]",> 2
14,"Cc1sc(N(Cc2ccc3nc[nH]c3c2)c2ccc(C#N)cc2)nc1C(=O)NS(C)(=O)=O [Compound 389, 2-[N-(3H-benzimidazol-5-ylmethyl)-4-cyano-anilino]-5-methyl-N-methylsulfonyl-thiazole-4-carboxamide]",1.58
15,"Cc1sc(N(CC(C)C)c2ccc(C#N)cc2)nc1C(=O)NS(C)(=O)=O [Compound 73, 2-(4-cyano-N-isobutyl-anilino)-5-methyl-N-methylsulfonyl-thiazole-4-carboxamide]",> 2
16,"Cc1sc(N(CCCC#N)c2ccc(C#N)cc2)nc1C(=O)NS(C)(=O)=O [Compound 360, 2-[4-cyano-N-(3-cyanopropyl)anilino]-5-methyl-N-methylsulfonyl-thiazole-4-carboxamide]",> 2
17,"Cc1sc(N(Cc2ccccc2OC(F)(F)F)c2ccc(C#N)cc2)nc1C(=O)NS(C)(=O)=O [Compound 101, 2-[4-cyano-N-[[2-(trifluoromethoxy)phenyl]methyl]anilino]-5-methyl-N-methylsulfonyl-thiazole-4-carboxamide]",0.631
18,"Cc1sc(N(C[C@H]2CC[C@H](O)CC2)c2ccc(C#N)cc2)nc1C(=O)NS(C)(=O)=O [Compound 354, 2-[4-cyano-N-[(trans-4-hydroxycyclohexyl)methyl]anilino]-5-methyl-N-methylsulfonyl-thiazole-4-carboxamide]",> 2
19,"Cc1sc(N(Cc2ccccc2)c2ccccc2)nc1C(=O)NS(C)(=O)=O [Compound 428, 2-(N-benzylanilino)-5-methyl-N-methylsulfonyl-thiazole-4-carboxamide]",> 2
20,"COc1ccccc1N(Cc1ccccc1)c1nc(C(=O)NS(C)(=O)=O)c(C)s1 [Compound 47, 2-(N-benzyl-2-methoxy-anilino)-5-methyl-N-methylsulfonyl-thiazole-4-carboxamide]",> 2
21,"Cc1ccn(CCN(Cc2ccccc2)c2nc(C(=O)NS(C)(=O)=O)c(C)s2)n1 [Compound 681, 2-[benzyl-[2-(3-methylpyrazol-1-yl)ethyl]amino]-5-methyl-N-methylsulfonyl-thiazole-4-carboxamide]",> 2
22,"Cc1sc(N(Cc2ccccc2)c2ccc(C#N)nc2)nc1C(=O)NS(C)(=O)=O [Compound 604, 2-[benzyl-(6-cyano-3-pyridyl)amino]-5-methyl-N-methylsulfonyl-thiazole-4-carboxamide]",> 2
23,"Cc1sc(N(Cc2ccccc2)c2cccc3c2ccn3C)nc1C(=O)NS(C)(=O)=O [Compound 337, 2-[benzyl-(1-methylindol-4-yl)amino]-5-methyl-N-methylsulfonyl-thiazole-4-carboxamide]",> 2

# Other lines, results leading:
row,EC50 [µM],SMILES
1,> 2,"Cc1sc(N(CCc2ccc(C#N)cc2)CC2CCCCC2)nc1C(=O)NS(=O)(=O)C(F)(F)F [Compound 719, 2-[2-(4-cyanophenyl)ethyl-(cyclohexylmethyl)amino]-5-methyl-N-(trifluoromethylsulfonyl)thiazole-4-carboxamide]"
2,> 2,"Cc1sc(N(Cc2ccccc2)c2ccc(CO)cc2)nc1C(=O)NS(C)(=O)=O [Example 226, 2-[N-benzyl-4-(hydroxymethyl)anilino]-5-methyl-N-methylsulfonyl-thiazole-4-carboxamide]"
3,> 2,"Cc1sc(N(Cc2ccccc2)c2cccc(C#N)c2)nc1C(=O)NS(C)(=O)=O [Example 225, 2-(N-benzyl-3-cyano-anilino)-5-methyl-N-methylsulfonyl-thiazole-4-carboxamide]"
4,0.0794,"Cc1ccccc1CN(c1ccc(C#N)cc1)c1nc(C(=O)NS(C)(=O)=O)c(Cl)s1 [Example 259, 5-chloro-2-[4-cyano-N-(o-tolylmethyl)anilino]-N-methylsulfonyl-thiazole-4-carboxamide]"
5,> 2,"Cc1sc(N(Cc2ccccc2)c2ccc(CCO)cc2)nc1C(=O)NS(C)(=O)=O [Example 234, 2-[N-benzyl-4-(2-hydroxyethyl)anilino]-5-methyl-N-methylsulfonyl-thiazole-4-carboxamide]"
6,> 2,"Cc1sc(N(Cc2ccccc2)c2ccc3ccn(C)c3c2)nc1C(=O)NS(C)(=O)=O [Compound 746, 2-[benzyl-(1-methylindol-6-yl)amino]-5-methyl-N-methylsulfonyl-thiazole-4-carboxamide]"
7,0.794,"Cc1nc(CN(c2ccc(C#N)cc2)c2nc(C(=O)NS(C)(=O)=O)c(Cl)s2)cs1 [Example 278, 5-chloro-2-[4-cyano-N-[(2-methylthiazol-4-yl)methyl]anilino]-N-methylsulfonyl-thiazole-4-carboxamide]"
8,> 2,"Cc1sc(N(Cc2ccccc2)c2ccccc2O)nc1C(=O)NS(C)(=O)=O [Example 207, 2-(N-benzyl-2-hydroxy-anilino)-5-methyl-N-methylsulfonyl-thiazole-4-carboxamide]"
9,> 2,"Cc1sc(N(CCc2ccc(C#N)cc2)CC2CCCCC2)nc1C(=O)NS(=O)(=O)Cc1cccc(F)c1 [Compound 720, 2-[2-(4-cyanophenyl)ethyl-(cyclohexylmethyl)amino]-N-[(3-fluorophenyl)methylsulfonyl]-5-methyl-thiazole-4-carboxamide]"
10,> 2,"Cc1sc(N(Cc2ccccc2)c2ccc(OCC(=O)O)cc2)nc1C(=O)NS(C)(=O)=O [Example 212, 2-[4-[benzyl-[5-methyl-4-(methylsulfonylcarbamoyl)thiazol-2-yl]amino]phenoxy]acetic acid]"
11,> 2,"Cc1sc(N(Cc2ccccc2)c2cccc(O)c2)nc1C(=O)NS(C)(=O)=O [Example 205, 2-(N-benzyl-3-hydroxy-anilino)-5-methyl-N-methylsulfonyl-thiazole-4-carboxamide]"
12,> 2,"Cc1sc(N(Cc2ccccc2)c2cc3ccccc3cn2)nc1C(=O)NS(C)(=O)=O [Compound 745, 2-[benzyl(3-isoquinolyl)amino]-5-methyl-N-methylsulfonyl-thiazole-4-carboxamide]"
